The record followed here is US12209087B2, “AKT1 modulators” (Alterome Therapeutics, Inc., priority 2022, dated 2025).

Some results are limits rather than exact numbers.

In general, IC50 refers to the concentration that gives 50% inhibition.

The first assay deals with T1, full length AKT E17K (Homo sapiens, UniProt P31749, E17K).
T1 construct: host or cells: HEK-293 (ATCC CRL-1573)
T1 sequence (P31749 whole entry E17K): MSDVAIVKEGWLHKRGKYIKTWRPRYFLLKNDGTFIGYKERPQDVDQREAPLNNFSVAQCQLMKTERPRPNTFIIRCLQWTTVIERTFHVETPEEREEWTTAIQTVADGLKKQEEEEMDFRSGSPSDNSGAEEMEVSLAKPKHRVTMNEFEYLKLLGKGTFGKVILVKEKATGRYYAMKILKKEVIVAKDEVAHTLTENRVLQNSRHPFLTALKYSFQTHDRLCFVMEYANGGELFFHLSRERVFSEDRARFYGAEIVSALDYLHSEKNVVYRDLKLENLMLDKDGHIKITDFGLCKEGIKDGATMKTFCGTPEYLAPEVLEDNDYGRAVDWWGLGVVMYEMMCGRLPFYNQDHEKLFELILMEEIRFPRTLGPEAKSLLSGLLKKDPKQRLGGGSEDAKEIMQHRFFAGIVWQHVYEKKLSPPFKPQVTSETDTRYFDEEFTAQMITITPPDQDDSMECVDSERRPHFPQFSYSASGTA
Briefly: NanoBRET Target Engagement (TE) Assay. It counts as cell-based. To be noted: competitive displacement of tracer in cells, read-out: AKT1 E17K IC50. An outline of the steps: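 Compound and tracer incubated 2 h before luminescence at donor 450 nm and acceptor 600 nm, with extracellular signal inhibited. EC50 by sigmoidal variable-slope regression.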
(In general: In BRET a luciferase serves as donor, and the signal depends on an acceptor being close.)
For `Cc1cnc(-c2ccc3nc(-c4cccnc4N)n(-c4ccc(CN5CCC(Nc6ccnc(C#N)n6)CC5)cc4)c3n2)cn1` [Example 582, 4-((1-(4-(2-(2-Aminopyridin-3-yl)-5-(5-methylpyrazin-2-yl)-3H-imidazo[4,5-b]pyridin-3-yl)benzyl)piperidin-4-yl)amino)pyrimidine-2-carbonitrile], the IC50 was below 15 nM.

Take `N#Cc1nccc(NC2CCN(Cc3ccc(-n4c(-c5nccnc5N)nc5ccc(-c6cnn(CF)n6)nc54)cc3)CC2)n1` [Example 627, 4-((1-(4-(2-(3-Aminopyrazin-2-yl)-5-(2-(fluoromethyl)-2H-1,2,3-triazol-4-yl)-3H-imidazo[4,5-b]pyridin-3-yl)benzyl)piperidin-4-yl)amino)pyrimidine-2-carbonitrile]: the IC50 is below 15 nM.

On to `CC(C)OC(=O)c1ccc2nc(-c3cccnc3N)n(-c3ccc(CN4CCC(Nc5ccnc(C#N)n5)CC4)cc3)c2n1` [Example 531, Isopropyl 2-(2-aminopyridin-3-yl)-3-(4-((4-((2-cyanopyrimidin-4-yl)amino)piperidin-1-yl)methyl)phenyl)-3H-imidazo[4,5-b]pyridine-5-carboxylate], for which the IC50 was below 15 nM.

Consider `[2H]C([2H])(c1ccc(-n2c(-c3cccnc3N)nc3cc(C)c(C)nc32)cc1)N1CCC(Nc2ccnc(C#N)n2)CC1` [Example 504, 4-((1-((4-(2-(2-Aminopyridin-3-yl)-5,6-dimethyl-3H-imidazo[4,5-b]pyridin-3-yl)phenyl)methyl-d2)piperidin-4-yl)amino)pyrimidine-2-carbonitrile], for which the IC50 was below 15 nM.

On to `N#Cc1ccc(-c2ccc3nc(-c4cccnc4N)n(-c4ccc(CN5CCC(Nc6nccc(C#N)n6)CC5)cc4)c3n2)cc1` [Example 321, 2-((1-(4-(2-(2-Aminopyridin-3-yl)-5-(4-cyanophenyl)-3H-imidazo[4,5-b]pyridin-3-yl)benzyl)piperidin-4-yl)amino)pyrimidine-4-carbonitrile], for which the IC50 fell in the range of 60 to 600 nM.

`N#Cc1ccc2c(c1)nc(-c1cccnc1N)n2-c1ccc(CN2CCC(Nc3ccnc(C#N)n3)CC2)cc1` [Example 501, 2-(2-Aminopyridin-3-yl)-1-(4-((4-((2-cyanopyrimidin-4-yl)amino)piperidin-1-yl)methyl)phenyl)-1H-benzo[d]imidazole-5-carbonitrile]: the IC50 lay in the range of 15 to 60 nM.

`N#Cc1nccc(NC2CCN(Cc3ccc(-n4c(-c5cccnc5N)nc5ccc(-c6ncn(C(F)F)n6)nc54)cc3)CC2)n1` [Example 572, 4-((1-(4-(2-(2-Aminopyridin-3-yl)-5-(1-(difluoromethyl)-1H-1,2,4-triazol-3-yl)-3H-imidazo[4,5-b]pyridin-3-yl)benzyl)piperidin-4-yl)amino)pyrimidine-2-carbonitrile]: the IC50 is below 15 nM.

On to `Cn1cc(-c2ccc3nc(-c4cccnc4N)n(-c4ccc(CN5CCC(Nc6ccnc(C#N)n6)CC5)cc4)c3n2)ccc1=O` [Example 355, 4-((1-(4-(2-(2-Aminopyridin-3-yl)-5-(1-methyl-6-oxo-1,6-dihydropyridin-3-yl)-3H-imidazo[4,5-b]pyridin-3-yl)benzyl)piperidin-4-yl)amino)pyrimidine-2-carbonitrile], for which the IC50 lay within 15 to 60 nM.

In the case of `N#Cc1nccc(NC2CC3(CCN(Cc4ccc(-n5c(-c6cccnc6N)nc6ccc(-c7ccc(F)cc7)nc65)cc4)CC3)C2)n1` [Example 444, 4-((7-(4-(2-(2-Aminopyridin-3-yl)-5-(4-fluorophenyl)-3H-imidazo[4,5-b]pyridin-3-yl)benzyl)-7-azaspiro[3.5]nonan-2-yl)amino)pyrimidine-2-carbonitrile], the IC50 lay in the range of 15 to 60 nM.

The assay is the same for the next values; noted with them: competitive tracer displacement in living cells, read-out: AKT1 E17K IC50.
For `N#Cc1nccc(N2C[C@H]3C[C@@H]2CN3Cc2ccc(-n3c(-c4cccnc4N)nc4ccc(-c5ccccc5)nc43)cc2)n1` [Example 216, 4-((1R,4R)-5-(4-(2-(2-Aminopyridin-3-yl)-5-phenyl-3H-imidazo[4,5-b]pyridin-3-yl)benzyl)-2,5-diazabicyclo[2.2.1]heptan-2-yl)pyrimidine-2-carbonitrile], the IC50 is below 15 nM.

In the case of `N#Cc1ccnc(N2CCCN(Cc3ccc(-n4c(-c5cccnc5N)nc5ccc(-c6ccccc6)nc54)cc3)CC2)n1` [Example 228, 2-(4-(4-(2-(2-Aminopyridin-3-yl)-5-phenyl-3H-imidazo[4,5-b]pyridin-3-yl)benzyl)-1,4-diazepan-1-yl)pyrimidine-4-carbonitrile], the IC50 lay in the range of 15 to 60 nM.

In the case of `N#Cc1cc(N2CCN(Cc3ccc(-n4c(-c5cccnc5N)nc5ccc(-c6ccccc6)nc54)cc3)CC2)cnn1` [Example 159, 5-(4-(4-(2-(2-Aminopyridin-3-yl)-5-phenyl-3H-imidazo[4,5-b]pyridin-3-yl)benzyl)piperazin-1-yl)pyridazine-3-carbonitrile], the IC50 was 15 to 60 nM.

Consider `N#Cc1nccc(N2CCN(Cc3ccc(-n4c(-c5cccnc5N)nc5ccc(-c6ccc(F)cc6)nc54)cc3)CC2)n1` [Example 242, 4-(4-(4-(2-(2-Aminopyridin-3-yl)-5-(4-fluorophenyl)-3H-imidazo[4,5-b]pyridin-3-yl)benzyl)piperazin-1-yl)pyrimidine-2-carbonitrile], for which the IC50 lay within 15 to 60 nM.

For `N#Cc1cncc(N2CCN(Cc3ccc(-n4c(-c5cccnc5N)nc5cccnc54)cc3)CC2)n1` [Example 19, 6-(4-(4-(2-(2-Aminopyridin-3-yl)-3H-imidazo[4,5-b]pyridin-3-yl)benzyl)piperazin-1-yl)pyrazine-2-carbonitrile], the IC50 was 600 to 10000 nM.

Turning to `N#Cc1cncc(NCc2ccc(-n3c(-c4cccnc4N)nc4cccnc43)cc2)c1` [Example 131, 5-((4-(2-(2-Aminopyridin-3-yl)-3H-imidazo[4,5-b]pyridin-3-yl)benzyl)amino)nicotinonitrile], the IC50 was in the range of 600 to 10000 nM.

Regarding `C[C@@H]1CN(Cc2ccc(-n3c(-c4cccnc4N)nc4ccc(-c5ccccc5)nc43)cc2)CCN1c1ncnc(C#N)n1` [Example 273, (R)-4-(4-(4-(2-(2-Aminopyridin-3-yl)-5-phenyl-3H-imidazo[4,5-b]pyridin-3-yl)benzyl)-2-methylpiperazin-1-yl)-1,3,5-triazine-2-carbonitrile], the IC50 was below 15 nM.

For `N#Cc1ccncc1C(=O)N1CCN(Cc2ccc(-n3c(-c4cccnc4N)nc4ccc(-c5ccccc5)nc43)cc2)CC1` [Example 145, 3-(4-(4-(2-(2-Aminopyridin-3-yl)-5-phenyl-3H-imidazo[4,5-b]pyridin-3-yl)benzyl)piperazine-1-carbonyl)isonicotinonitrile], the IC50 was in the range of 600 to 10000 nM.

Regarding `C[C@@H]1CN(Cc2ccc(-n3c(-c4cccnc4N)nc4ccc(-c5ccccc5)nc43)cc2)CCN1c1ccnc(C#N)n1` [Example 225, (R)-4-(4-(4-(2-(2-aminopyridin-3-yl)-5-phenyl-3H-imidazo[4,5-b]pyridin-3-yl)benzyl)-2-methylpiperazin-1-yl)pyrimidine-2-carbonitrile], the IC50 was in the range of 60 to 600 nM.

Regarding `N#Cc1cncc(NC2CCN(Cc3ccc(-n4c(-c5cccnc5N)nc5ccc(-c6ccccc6)nc54)cc3)CC2)n1` [Example 89, 6-((1-(4-(2-(2-Aminopyridin-3-yl)-5-phenyl-3H-imidazo[4,5-b]pyridin-3-yl)benzyl)piperidin-4-yl)amino)pyrazine-2-carbonitrile], the IC50 is below 15 nM.

Regarding `N#Cc1ccc(C(=O)NCc2ccc(-n3c(-c4cccnc4N)nc4cc(-c5ccccc5)cnc43)cc2)cn1` [Example 106, N-(4-(2-(2-Aminopyridin-3-yl)-6-phenyl-3H-imidazo[4,5-b]pyridin-3-yl)benzyl)-6-cyanonicotinamide], the IC50 was 600 to 10000 nM.
